Literature values in patent US11793769B2, “Device with compositions for delivery to the lungs, the oral mucosa and the brain” (priority 2014, dated 2023).

Columns and labels:
[1] = tested on: animal models of anxiety and depression; settings: in vivo
[2] = tested on: paclitaxel-induced neuropathic pain; settings: without affecting the efficacy of the chemotherapy
[3] = biological target: cannabinoid type II receptor (CB2) (Homo sapiens, UniProt P34972); settings: compared with CB1
Chain of cannabinoid type II receptor (CB2) (P34972 whole entry, species assumed): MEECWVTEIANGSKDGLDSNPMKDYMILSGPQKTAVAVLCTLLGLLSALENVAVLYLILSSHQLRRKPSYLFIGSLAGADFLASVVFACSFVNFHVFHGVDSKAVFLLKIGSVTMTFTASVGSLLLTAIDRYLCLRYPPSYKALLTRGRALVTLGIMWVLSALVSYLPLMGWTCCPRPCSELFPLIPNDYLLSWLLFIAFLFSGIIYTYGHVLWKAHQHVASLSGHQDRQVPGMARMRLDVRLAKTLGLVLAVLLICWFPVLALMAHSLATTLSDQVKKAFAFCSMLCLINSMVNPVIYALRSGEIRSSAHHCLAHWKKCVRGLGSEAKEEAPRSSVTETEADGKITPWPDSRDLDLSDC

SMILES: C=C(C)[C@@H]1CCC(C)=C[C@H]1c1c(O)cc(CCCCC)cc1O [CBD, cannabidiol]
- effects in animal models of anxiety and depression [1]: both anti-anxiety and antidepressant effects
- effect on paclitaxel-induced neuropathic pain [2]: inhibits paclitaxel-induced neuropathic pain
- affinity to CB2 [3]: higher affinity
